Common to all, as to test: biochemical
Holding throughout (format): binding

The target of assay [1] is T1, panel of 442 kinases (Homo sapiens, UniProt O43293).
T1 construct: purchased Ambit Biosciences (scanMAXX KINOMEscan)
The note with it: DAPK3; for remaining activity at 1 µM: read-out: % of control at 1 µM.

In assay [2] the target is T2, panel of 442 kinases (Homo sapiens, UniProt O75385).
T2 construct: purchased Ambit Biosciences (scanMAXX KINOMEscan)
T2 sequence (O75385 1-1050): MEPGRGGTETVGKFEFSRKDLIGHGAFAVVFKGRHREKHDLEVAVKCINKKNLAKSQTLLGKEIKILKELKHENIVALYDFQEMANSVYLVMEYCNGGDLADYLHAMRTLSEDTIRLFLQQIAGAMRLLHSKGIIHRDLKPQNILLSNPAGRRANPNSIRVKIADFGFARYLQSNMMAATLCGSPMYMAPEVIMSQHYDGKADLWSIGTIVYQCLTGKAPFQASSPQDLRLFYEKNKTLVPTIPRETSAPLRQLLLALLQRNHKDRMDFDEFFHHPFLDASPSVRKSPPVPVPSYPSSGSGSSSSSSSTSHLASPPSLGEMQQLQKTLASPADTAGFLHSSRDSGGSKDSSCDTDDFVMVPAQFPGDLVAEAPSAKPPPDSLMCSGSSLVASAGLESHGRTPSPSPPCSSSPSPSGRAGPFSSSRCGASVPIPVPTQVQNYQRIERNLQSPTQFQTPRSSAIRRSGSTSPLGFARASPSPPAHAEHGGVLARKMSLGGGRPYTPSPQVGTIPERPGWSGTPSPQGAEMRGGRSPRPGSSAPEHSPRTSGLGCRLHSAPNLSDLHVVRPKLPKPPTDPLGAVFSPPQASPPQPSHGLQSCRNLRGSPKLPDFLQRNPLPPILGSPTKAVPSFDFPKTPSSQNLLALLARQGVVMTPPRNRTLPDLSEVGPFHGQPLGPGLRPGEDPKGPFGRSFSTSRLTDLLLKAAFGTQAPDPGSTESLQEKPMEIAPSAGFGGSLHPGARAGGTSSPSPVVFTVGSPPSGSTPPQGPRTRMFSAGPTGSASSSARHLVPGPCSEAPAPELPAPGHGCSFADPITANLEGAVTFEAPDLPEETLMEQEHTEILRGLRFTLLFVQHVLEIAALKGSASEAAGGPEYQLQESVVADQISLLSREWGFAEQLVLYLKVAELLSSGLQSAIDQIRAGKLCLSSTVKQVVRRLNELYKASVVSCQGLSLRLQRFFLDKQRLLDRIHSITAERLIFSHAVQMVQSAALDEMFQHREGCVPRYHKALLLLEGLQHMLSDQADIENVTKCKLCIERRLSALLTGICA
As to conditions: kinase ULK1; for remaining activity at 1 µM: read-out: ULK1 (% of control at 1 µM).

Assay [3] deals with T3, panel of 442 kinases (Homo sapiens, UniProt P00519, Q252H).
T3 construct: purchased Ambit Biosciences (scanMAXX KINOMEscan)
The note with it: for remaining activity at 1 µM: read-out: % of control at 1 µM; for remaining activity at 10 µM: read-out: % of control at 10 µM.

For assay [4], the target named is T4, panel of 442 kinases (Homo sapiens, UniProt P17612).
T4 construct: purchased Ambit Biosciences (scanMAXX KINOMEscan)
As to conditions: kinase PKAC-alpha; for remaining activity at 1 µM: read-out: % of control at 1 µM.

Assay [5] concerns the target T5, panel of 442 kinases (Homo sapiens, UniProt P36888, N841I).
T5 construct: purchased Ambit Biosciences (scanMAXX KINOMEscan)
T5 sequence (P36888 27-993 N841I): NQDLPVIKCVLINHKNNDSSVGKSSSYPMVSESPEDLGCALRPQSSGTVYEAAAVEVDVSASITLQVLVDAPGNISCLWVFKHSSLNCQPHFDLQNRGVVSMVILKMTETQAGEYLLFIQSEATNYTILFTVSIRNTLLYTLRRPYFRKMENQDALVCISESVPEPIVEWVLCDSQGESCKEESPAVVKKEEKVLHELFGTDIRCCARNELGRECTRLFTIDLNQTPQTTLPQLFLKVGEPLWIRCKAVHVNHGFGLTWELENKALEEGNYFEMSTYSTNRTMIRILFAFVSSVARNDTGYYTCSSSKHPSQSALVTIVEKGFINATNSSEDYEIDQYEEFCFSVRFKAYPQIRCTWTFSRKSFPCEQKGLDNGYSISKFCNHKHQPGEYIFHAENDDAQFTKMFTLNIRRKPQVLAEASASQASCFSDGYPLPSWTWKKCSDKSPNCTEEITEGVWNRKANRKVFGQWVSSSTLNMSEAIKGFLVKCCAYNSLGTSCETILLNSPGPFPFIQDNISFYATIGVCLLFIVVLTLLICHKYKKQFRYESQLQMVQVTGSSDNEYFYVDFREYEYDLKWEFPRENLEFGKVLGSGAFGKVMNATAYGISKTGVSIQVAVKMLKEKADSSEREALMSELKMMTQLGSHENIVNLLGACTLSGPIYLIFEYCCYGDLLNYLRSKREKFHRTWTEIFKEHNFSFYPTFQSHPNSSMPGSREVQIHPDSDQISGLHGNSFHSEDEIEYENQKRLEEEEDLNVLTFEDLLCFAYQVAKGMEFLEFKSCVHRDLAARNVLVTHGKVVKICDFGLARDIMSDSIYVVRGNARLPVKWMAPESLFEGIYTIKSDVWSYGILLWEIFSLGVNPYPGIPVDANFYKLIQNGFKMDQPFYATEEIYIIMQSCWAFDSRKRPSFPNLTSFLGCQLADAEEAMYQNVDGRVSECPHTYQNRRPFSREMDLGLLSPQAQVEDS
As to conditions: kinase FLT3(N841I); for remaining activity at 1 µM: read-out: % of control at 1 µM.

Assay [6] concerns the target T6, panel of 442 kinases (Homo sapiens, UniProt P50750).
T6 construct: purchased Ambit Biosciences (scanMAXX KINOMEscan)
The note with it: CDK9; for remaining activity at 1 µM: read-out: % of control at 1 µM.

The target of assay [7] is T7, panel of 442 kinases (Homo sapiens, UniProt P53778).
T7 construct: purchased Ambit Biosciences (scanMAXX KINOMEscan)
T7 sequence (P53778 1-367): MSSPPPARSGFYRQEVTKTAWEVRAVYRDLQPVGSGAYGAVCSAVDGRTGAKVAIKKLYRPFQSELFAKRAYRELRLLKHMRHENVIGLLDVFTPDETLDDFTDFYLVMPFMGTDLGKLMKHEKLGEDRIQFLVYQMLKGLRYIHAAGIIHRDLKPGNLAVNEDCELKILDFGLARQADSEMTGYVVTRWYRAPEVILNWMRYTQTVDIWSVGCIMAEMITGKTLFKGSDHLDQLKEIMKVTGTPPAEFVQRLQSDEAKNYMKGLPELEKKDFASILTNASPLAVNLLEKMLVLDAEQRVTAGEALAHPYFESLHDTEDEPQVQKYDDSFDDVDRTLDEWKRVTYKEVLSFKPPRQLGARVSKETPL
The note with it: kinase p38-gamma; for remaining activity at 1 µM: read-out: % of control at 1 µM.

Assay [8] concerns the target T8, panel of 442 kinases (Homo sapiens, UniProt Q9H1R3).
T8 construct: purchased Ambit Biosciences (scanMAXX KINOMEscan)
As to conditions: kinase MYLK2; for remaining activity at 1 µM: read-out: % of control at 1 µM.

The mark [9] stands for this setting: 10 µM, read-out: % of control at 10 µM.

Like-named read-outs stand apart in the source and are kept apart here.

T6 sequence (P50750 whole entry): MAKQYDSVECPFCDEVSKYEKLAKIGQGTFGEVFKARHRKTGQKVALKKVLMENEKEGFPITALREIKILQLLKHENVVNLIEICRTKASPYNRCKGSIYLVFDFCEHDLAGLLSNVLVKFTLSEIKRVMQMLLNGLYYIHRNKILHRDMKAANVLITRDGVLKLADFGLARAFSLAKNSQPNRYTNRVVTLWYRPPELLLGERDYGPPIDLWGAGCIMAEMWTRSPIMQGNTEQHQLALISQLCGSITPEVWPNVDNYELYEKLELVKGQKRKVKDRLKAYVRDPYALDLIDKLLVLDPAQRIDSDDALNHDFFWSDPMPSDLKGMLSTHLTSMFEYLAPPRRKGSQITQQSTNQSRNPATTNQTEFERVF
T8 sequence (Q9H1R3 whole entry): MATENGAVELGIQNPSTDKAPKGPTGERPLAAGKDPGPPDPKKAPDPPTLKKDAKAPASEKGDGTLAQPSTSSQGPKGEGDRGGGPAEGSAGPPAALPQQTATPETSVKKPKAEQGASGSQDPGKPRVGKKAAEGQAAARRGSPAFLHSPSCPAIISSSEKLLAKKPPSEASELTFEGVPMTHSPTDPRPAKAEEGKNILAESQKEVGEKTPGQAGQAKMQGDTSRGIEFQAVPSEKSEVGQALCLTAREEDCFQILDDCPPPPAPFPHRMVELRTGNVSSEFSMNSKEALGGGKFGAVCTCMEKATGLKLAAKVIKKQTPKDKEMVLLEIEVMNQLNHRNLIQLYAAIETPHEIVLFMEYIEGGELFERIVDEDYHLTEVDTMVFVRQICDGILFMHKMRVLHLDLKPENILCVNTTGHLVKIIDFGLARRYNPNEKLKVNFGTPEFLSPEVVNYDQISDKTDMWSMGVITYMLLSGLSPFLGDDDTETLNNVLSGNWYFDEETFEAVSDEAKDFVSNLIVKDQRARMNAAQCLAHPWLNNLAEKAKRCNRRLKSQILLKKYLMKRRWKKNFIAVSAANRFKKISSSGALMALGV
T1 sequence (O43293 whole entry): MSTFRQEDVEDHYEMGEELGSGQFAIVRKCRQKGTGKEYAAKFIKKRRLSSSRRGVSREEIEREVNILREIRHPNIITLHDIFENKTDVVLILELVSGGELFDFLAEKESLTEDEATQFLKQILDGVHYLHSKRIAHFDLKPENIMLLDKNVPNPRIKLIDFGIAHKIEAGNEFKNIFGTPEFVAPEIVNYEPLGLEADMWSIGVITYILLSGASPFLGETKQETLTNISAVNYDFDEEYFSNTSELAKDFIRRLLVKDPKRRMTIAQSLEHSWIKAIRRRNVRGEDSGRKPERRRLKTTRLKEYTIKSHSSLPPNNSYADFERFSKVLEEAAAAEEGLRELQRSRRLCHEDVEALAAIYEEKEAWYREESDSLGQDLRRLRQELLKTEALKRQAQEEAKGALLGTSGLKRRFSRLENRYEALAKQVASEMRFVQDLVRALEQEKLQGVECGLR

Turning to `COc1ncc(-c2ccc3nccc(-c4ccnnc4)c3c2)cc1NS(=O)(=O)c1ccc(F)cc1F` [Omipalisib], the remaining activity at 1 µM on panel of 442 kinases [1] was 100%; on panel of 442 kinases [2] it was 99%; on panel of 442 kinases [3] (ABL1(Q252H)-nonphosphorylated), 100%; on panel of 442 kinases [3] (ABL1(Q252H)-phosphorylated), 100%; on panel of 442 kinases [4], 84%; at panel of 442 kinases [5], 70%. Also, the remaining activity at 1 µM on panel of 442 kinases [6] was 100%; on panel of 442 kinases [7], 69%; at panel of 442 kinases [8], 100%.
As to `Cn1c(=O)n(-c2ccc(C(C)(C)C#N)cc2)c2c3cc(-c4cnc5ccccc5c4)ccc3ncc21` [Dactolisib, 2-methyl-2-[4-(3-methyl-2-oxo-8-quinolin-3-yl-2,3-dihydroimidazo[4,5-c]quinolin-1-yl)-phenyl] propionitrile], the remaining activity at 1 µM at panel of 442 kinases [1] was 100%; on panel of 442 kinases [2] it was 88%; on panel of 442 kinases [3] (ABL1(Q252H)-nonphosphorylated) it was 57%; on panel of 442 kinases [3] (ABL1(Q252H)-phosphorylated), 59%; on panel of 442 kinases [4] it was 100%; at panel of 442 kinases [5] it was 24%. The remaining activity at 1 µM on panel of 442 kinases [6] turned out to be 91%; on panel of 442 kinases [7], 100%; on panel of 442 kinases [8] it was 93%.
Consider `Nc1cc(C(F)(F)F)c(-c2cc(N3CCOCC3)nc(N3CCOCC3)n2)cn1` [Buparlisib], for which the remaining activity at 1 µM came out at 100% at panel of 442 kinases [1]; 100% at panel of 442 kinases [2]; 100% at panel of 442 kinases [3] (ABL1(Q252H)-nonphosphorylated); 72% at panel of 442 kinases [3] (ABL1(Q252H)-phosphorylated); 86% on panel of 442 kinases [4]; 86% on panel of 442 kinases [5]. The results for the remaining activity at 1 µM at panel of 442 kinases [6], at panel of 442 kinases [7] and on panel of 442 kinases [8] were 85%, 100% and 100%, respectively. Moreover, the remaining activity at 10 µM on panel of 442 kinases [1] (setting [9]) was 100%; on panel of 442 kinases [2] (10 µM, read-out: ULK1 (% of control at 10 µM)) it was 100%; on panel of 442 kinases [3] (ABL1(Q252H)-nonphosphorylated), 100%; on panel of 442 kinases [3] (ABL1(Q252H)-phosphorylated), 100%; at panel of 442 kinases [4] (setting [9]), 100%; on panel of 442 kinases [5] (setting [9]) it was 97%. Besides, the remaining activity at 10 µM at panel of 442 kinases [6] (setting [9]) turned out to be 85%; on panel of 442 kinases [7] (setting [9]), 100%; on panel of 442 kinases [8] (setting [9]), 100%.
In the case of `FC(F)c1nc2ccccc2n1-c1nc(N2CCOCC2)nc(N2CCOCC2)n1` [ZSTK474, 2-(difluoromethyl)-1-[4,6-di(4-morpholinyl)-1,3,5-triazin-2-yl]-1H-benzimidazole], the remaining activity at 1 µM at panel of 442 kinases [1] was 100%; on panel of 442 kinases [2], 69%; at panel of 442 kinases [3] (ABL1(Q252H)-nonphosphorylated) it was 100%; at panel of 442 kinases [3] (ABL1(Q252H)-phosphorylated), 100%; at panel of 442 kinases [4], 100%; at panel of 442 kinases [5], 90%. The figures for the remaining activity at 1 µM on panel of 442 kinases [6], on panel of 442 kinases [7] and at panel of 442 kinases [8] were 100%, 100% and 95%, respectively.

The record behind these values is PMC5564600 (Oncotarget, 2017).
